Common to all, as to format: cell-based
Assay [1] has as its system Mixed Gram Negative Bacteria. Kind of assay: Mycobacterium challenge, four-week re-inoculation test: mixed Gram-negative bacteria count. The settings on record: 5 w/w % dilution. How it is done:
(§1) A tap water dilution of the metal working fluid for the Mycobacterium challenge was made to a concentration of 5 w/w %. The sample was tested by Biosan Laboratories, in Warren, Mich., USA, an independent commercial biological laboratory, for biostatic activity against Mycobacterium and against mixed Gram-negative bacteria.
(§2) The test method evaluated the effectiveness of antimicrobial agents in controlling Mycobacterium immunogenum in the presence of high background population of Gram-negative and other bacteria responsible for metal working fluid deterioration. Sample metal working fluids including the biostat of Example 5 and antimicrobial agents were prepared at use concentrations. 1% iron chips were added to the diluted metal working fluid samples. Two microbial populations were then introduced at a 1% level: an undefined Gram-negative bacterial inoculum isolated from a contaminated metal working fluid, and an inoculum containing Mycobacterium immunogenum. The inoculated test metal working fluids were incubated at room temperature (22+2° C.) on an orbital shaker for four weeks. During the four week test period, the metal working fluids were evaluated twice weekly for bacterial and mycobacterial contamination before being re-inoculated with both microbial suspensions at 1% concentrations. This re-inoculation method ensured sufficient viable Gram-negative and Mycobacterium levels throughout the test.

Assay [2] has as its system Mycobacterium immunogenum. Nature of the assay: Mycobacterium challenge, four-week re-inoculation test: Mycobacterium count. The settings on record: 5 w/w % dilution. How it is done:
as §1, §2

Assay [3] concerns mixed Gram-negative bacteria. Kind of assay: Minimum inhibitory concentration testing (biostat candidate screening, Phase 1 and Phase 2; dip slide counts). The settings on record: for Differential Value Scores, Average / Differential Value Scores, Round 1 / Differential Value Scores, Round 2 / Differential Value Scores, Round 3: Phase 1, scale 0-6, 3 = matches DCHA standard; for Differential Value Scores, Average: average of Rounds 1-3; for Differential Value Scores, Round 1 / Differential Value Scores, Round 2 / Differential Value Scores, Round 3: log bacterial counts at 24 and 48 h versus DCHA standard, higher = better.

Where [4] appears, read: Sample 1, Day 0 (Initial Inoculum).
[5] abbreviates: Sample 2, Day 0 (Initial Inoculum).

`CC(CN)CCCN` (stereo not shown) [Example 5, Methylpentamethylene diamine]: the “Mixed Gram Negative Bacteria count” value is given as ~1 × 10^6 cfu/ml in assay [1] (setting [4]); under 2 cfu/ml in assay [1] (Sample 1, Day 2); under 2 cfu/ml in assay [1] (Sample 1, Day 7); under 2 cfu/ml in assay [1] (Sample 1, Day 9); under 2 cfu/ml in assay [1] (Sample 1, Day 14); under 2 cfu/ml in assay [1] (Sample 1, Day 16). Further, the “Mixed Gram Negative Bacteria count” value in assay [1] (Sample 1, Day 21) was under 2 cfu/ml; in assay [1] (Sample 1, Day 23) it was under 2 cfu/ml; in assay [1] (setting [5]), ~1 × 10^6 cfu/ml; in assay [1] (Sample 2, Day 2) it was under 2 cfu/ml; in assay [1] (Sample 2, Day 7), under 2 cfu/ml; in assay [1] (Sample 2, Day 9) it was under 2 cfu/ml. The “Mixed Gram Negative Bacteria count” value in assay [1] (Sample 2, Day 14) is given as under 2 cfu/ml; in assay [1] (Sample 2, Day 16) it was under 2 cfu/ml; in assay [1] (Sample 2, Day 21) it was under 2 cfu/ml; in assay [1] (Sample 2, Day 23) it was under 2 cfu/ml. Moreover, the Mycobacterium immunogenum count in assay [2] (setting [4]) is given as ~1 × 10^5 cfu/ml; in assay [2] (Sample 1, Day 2), under 2 cfu/ml; in assay [2] (Sample 1, Day 7), under 2 cfu/ml; in assay [2] (Sample 1, Day 9), under 2 cfu/ml; in assay [2] (Sample 1, Day 14), under 2 cfu/ml; in assay [2] (Sample 1, Day 16), under 2 cfu/ml. The Mycobacterium immunogenum count in assay [2] (Sample 1, Day 21) was under 2 cfu/ml; in assay [2] (Sample 1, Day 23) it was under 2 cfu/ml; in assay [2] (setting [5]), ~1 × 10^5 cfu/ml; in assay [2] (Sample 2, Day 2), under 2 cfu/ml; in assay [2] (Sample 2, Day 7) it was under 2 cfu/ml; in assay [2] (Sample 2, Day 9), under 2 cfu/ml. The Mycobacterium immunogenum count in assay [2] (Sample 2, Day 14) was under 2 cfu/ml; in assay [2] (Sample 2, Day 16), under 2 cfu/ml; in assay [2] (Sample 2, Day 21) it was under 2 cfu/ml; in assay [2] (Sample 2, Day 23), under 2 cfu/ml. Further, the “Differential Value Scores, Average” value in assay [3] amounted to 3.3. In addition, the “Differential Value Scores, Round 1” value in assay [3] amounted to 2.5. In assay [3], the “Differential Value Scores, Round 2” value is recorded as 4.5. Besides, the “Differential Value Scores, Round 3” value in assay [3] stood at 3. For the same compound, the “Biostatic efficacy regarding Gram-negative bacteria compared with the DCHA standard” value in assay [3] (result in words, 3 wt. % amine in metal working fluid) is recorded as “outperformed DCHA”.
For `NCC1CCCCC1` [C8, Aminomethylcyclohexane], in assay [3], the “Differential Value Scores, Average” value is reported as 1.5; the “Differential Value Scores, Round 1” value is listed as 1; the “Differential Value Scores, Round 2” value was 2.5; the “Differential Value Scores, Round 3” value is 1.
Consider `CC1CCCCC1N` (stereo not shown) [C5, 2-methylcyclohexylamine], for which, in assay [3], the “Differential Value Scores, Average” value worked out at 1.7; the “Differential Value Scores, Round 1” value is 1; the “Differential Value Scores, Round 2” value stood at 2.5; the “Differential Value Scores, Round 3” value was 1.5.
For the compound `CCNC1CCCCC1` [C6, N-ethylcyclohexylamine], in assay [3], the “Differential Value Scores, Average” value was found to be 1.7; the “Differential Value Scores, Round 1” value is reported as 1.5; the “Differential Value Scores, Round 2” value is 2.5; the “Differential Value Scores, Round 3” value came to 1.

These data come from patent US11034913B2, “Metal working fluid” (Henkel AG & Co. KGaA, priority 2015, dated 2021).
